pIC50: −log10 of the molar value.
What was measured:
[1] = target: T1, Ba/F3 FGFR2-V564F (Homo sapiens, UniProt P21802, V564F, cells depend on it); assay: 2D cell proliferation assay, Ba/F3 FGFR2-V564F; type: cell-based, mouse; settings: 96 hours, CTG, read-out: Cell Line, IC50 Ba/F3 FGFR2-V564F
T1 construct: fused on or other part: Q9H694 (Protein bicaudal C homolog 1)
Description: (§1) Low IC50 values are indicative of the high potency of the FGFR inhibitor compounds in this assay selling. […] Cell proliferation assays are performed in two-dimensional (2D)) anchorage-dependent conditions in 96 well plates (Corning® Black/Clear flat Bottom, Cat #3603) with the following cell lines: • Ba/F3 FGFR2-BICC1 (human […]): Mouse Ba/F3 cell line stably expressed exogenous human FGFR2-BICC1 fusion gene bearing V546F mutation in FGFR2 Ba/F3; • FGFR2-BICC1 (human FGFR2/[…]): Mouse Ba/F3 cell line stably expressed exogenous human FGFR2-BICC1 fusion gene bearing N549K mutation in FGFR2; • Snu-16: human gastric cancer cell with FGFR2 amplification; • KATO III: human gastric cancer cell with FGFR2 amplification; • AN3CA: Human endometrial cancer with FGFR2 mutation (k310R, N549K); • MFM-223: Human breast cancer with FGFR1/2 amplification; • MFE-296: Human endometrial cancer with FGFR2 mutation (N549K); • MFE-280: Human endometrial cancer with FGFR2 mutation ([…]); • NCI-H1581: human non-small cell lung cancer with FGFR1 amplification; • KG-1a: Acute myelogenous leukemia with FGFR1OP2-FGFR1 translocation; • DMS114: human small cell carcinoma of the lung with FGFR1 amplification; • RT112: human bladder cancer with FGFR3 overexpression/FGFR3-TACC3 fusion; • SW780: human bladder cancer with FGFR3 overexpression/FGFR3-BALAP2L1 fusion; • Hep3B: Liver cancer with FGF19 amplification (FGFR4 ligand); • AGS: Human gastric adenocarcinoma with Kras G12D mutation and FGFR wild type; • PC-9: human non-small cell lung cancer (NSCLC) with wild-type FGFR and an EGFR del19 mutation; or • H1975: human non-small cell lung cancer (NSCLC) with wild-type FGFR and EGFR L858R/T790M mutation.
(§2) Cell lines are purchased from the American Type Culture Collection (ATCC) or Sigma. All cell lines are maintained in RPMI-1640 or DMEM supplemented with 10% heat-inactivated fetal bovine serum.
(§3) Cells growing in the log phase are detached with Gibco™ TrypLE™ Express Enzyme and plated in 96 well plate at 3000 to 5000 cells/well in 100 μl of media. After overnight incubation at 37° C., 5% CO2 incubator, cells are treated with compounds (50 uL/well) at the final concentrations spanning from 0.000038 uM to 10 μM (4-fold serial dilution for total of 10 points). Cells are incubated at 37° C., 5% CO2, and 95% humidity incubator for 96 hours. At the end of incubation 2D CTG reagent from Promega was added to each well according to vendors recommendation and mixed for 10 min in dark. The luminescence signals are determined with a Biotek™ plate reader. Data is fitted using a sigmoidal curve analysis program (GraphPad Prism®) with variable hill slope and IC50 is determined.

[2] = target: T2, Ba/F3 FGFR2-N549K (Homo sapiens, UniProt P21802, N549K, cells depend on it); assay: 2D cell proliferation assay, Ba/F3 FGFR2-N549K; type: cell-based, mouse; settings: 96 hours, CTG, read-out: Cell Line, IC50 Ba/F3 FGFR2-N549K
T2 construct: fused on or other part: Q9H694 (Protein bicaudal C homolog 1)
T2 sequence (P21802 whole entry N549K, the tested form may be a part): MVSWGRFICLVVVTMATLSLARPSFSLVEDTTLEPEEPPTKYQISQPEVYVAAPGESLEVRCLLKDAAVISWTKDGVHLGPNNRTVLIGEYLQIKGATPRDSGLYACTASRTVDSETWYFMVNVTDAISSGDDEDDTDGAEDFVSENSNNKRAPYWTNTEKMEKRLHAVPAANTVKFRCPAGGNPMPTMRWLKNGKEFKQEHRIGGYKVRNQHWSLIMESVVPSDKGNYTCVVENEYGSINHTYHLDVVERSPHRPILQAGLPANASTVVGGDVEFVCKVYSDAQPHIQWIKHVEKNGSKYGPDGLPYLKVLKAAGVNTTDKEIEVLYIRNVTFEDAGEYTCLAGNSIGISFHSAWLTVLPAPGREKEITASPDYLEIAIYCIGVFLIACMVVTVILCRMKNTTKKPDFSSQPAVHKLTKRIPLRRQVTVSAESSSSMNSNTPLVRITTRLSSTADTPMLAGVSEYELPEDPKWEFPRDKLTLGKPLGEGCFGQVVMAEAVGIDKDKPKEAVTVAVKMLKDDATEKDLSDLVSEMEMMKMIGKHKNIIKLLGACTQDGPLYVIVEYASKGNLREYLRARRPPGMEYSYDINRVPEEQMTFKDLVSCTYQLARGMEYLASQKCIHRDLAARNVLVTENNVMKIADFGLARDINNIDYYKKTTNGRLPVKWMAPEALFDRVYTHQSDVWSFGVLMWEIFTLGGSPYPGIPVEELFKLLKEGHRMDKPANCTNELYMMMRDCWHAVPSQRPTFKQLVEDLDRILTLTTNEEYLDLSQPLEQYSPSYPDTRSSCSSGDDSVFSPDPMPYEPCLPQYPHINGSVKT
Description: as §1, §2, §3

[3] = target: T3, FGFR2 (Homo sapiens, UniProt P21802, K310R/N549K); assay: pERK potency assay (In Cell ELISA), AN3CA cells; type: cell-based; settings: for pIC50: pERK, AN3CA (FGFR2/k310R, N549K) cells, 3 hours; for FGFR1 IC50/FGFR2 IC50 / FGFR3 IC50/FGFR2 IC50: selectivity ratio, pERK potency; for FGFR1 IC50/FGFR2 IC50: FGFR2 relative to FGFR1; for FGFR3 IC50/FGFR2 IC50: FGFR2 relative to FGFR3
T3 construct: in FGFR aberrations of AN3CA (FGFR2/k310R, N549K); host or cells: AN3CA
T3 sequence (P21802 22-821 K310R/N549K): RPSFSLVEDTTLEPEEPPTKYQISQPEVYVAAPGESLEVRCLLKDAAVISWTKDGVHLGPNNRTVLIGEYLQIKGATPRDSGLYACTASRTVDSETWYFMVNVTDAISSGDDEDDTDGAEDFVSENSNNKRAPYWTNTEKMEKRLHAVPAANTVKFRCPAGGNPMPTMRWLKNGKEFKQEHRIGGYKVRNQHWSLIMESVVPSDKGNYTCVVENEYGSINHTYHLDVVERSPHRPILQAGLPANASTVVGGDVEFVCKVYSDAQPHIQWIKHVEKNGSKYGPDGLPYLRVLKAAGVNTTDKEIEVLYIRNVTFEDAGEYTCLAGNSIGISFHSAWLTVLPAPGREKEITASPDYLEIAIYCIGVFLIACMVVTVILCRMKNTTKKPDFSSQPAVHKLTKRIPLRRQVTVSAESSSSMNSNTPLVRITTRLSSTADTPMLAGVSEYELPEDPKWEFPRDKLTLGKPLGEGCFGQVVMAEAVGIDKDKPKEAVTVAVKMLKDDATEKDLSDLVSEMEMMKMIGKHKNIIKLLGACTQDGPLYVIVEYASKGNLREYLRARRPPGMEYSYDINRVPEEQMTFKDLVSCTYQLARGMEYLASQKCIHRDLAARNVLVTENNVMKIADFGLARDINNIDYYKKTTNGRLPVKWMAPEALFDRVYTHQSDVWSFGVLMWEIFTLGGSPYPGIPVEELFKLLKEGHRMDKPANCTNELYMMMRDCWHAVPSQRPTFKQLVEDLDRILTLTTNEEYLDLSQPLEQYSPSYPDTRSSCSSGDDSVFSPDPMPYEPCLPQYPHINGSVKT
Source text: (§4) The purpose of this assay is to measure the ability of test compounds to inhibit FGFR mediated downstream signaling cascades, i.e., ERK phosphorylation in cells with FGFR aberrations. FGFR aberrations become constitutively active and thus induces cascades of cellular signaling events that result in increased phosphorylation of ERK at Threonine 202 and Tyrosine 204 (pERK). The procedure called In Cell ELISA described below measures the level of cellular pERK in response to FGFR specific inhibitor compounds in FGFR aberrations of AN3CA (FGFR2/k310R, N549K), DMS114 (FGFR1 amplification), RT112 (FGFR3 overexpression/FGFR3-TACC3 fusion) and Hep3B (FGF19 amplification) cells. AN3CA, DMS114 and Hep3B cells are from ATCC. RT112 cells are from Sigma. DMS114 cells are grown and maintained using RPMI-1640 medium supplemented with 10% heat-inactivated fetal bovine serum. AN3CA, Hep3B and RT112 cells are grown and maintained using DMEM supplemented with 10% heat-inactivated fetal bovine serum. On the day before test compound addition, cells are plated in poly-D-lysine coated 96-well cell culture plates (Corning® BioCoat® Cat #356640) at 40000 cells/well/100 μL and grown overnight in a 37° C., 5% CO2 incubator. Test compounds are prepared with 4-fold serial dilutions in DMSO, with a top concentration of 10 μM. On the day of the assay, 50 μL of test compound diluted in media was added to each well of cell culture plate with the final concentration of compounds spanning from 0.000038 μM to 10 μM. After compound addition, cells are incubated for 3 hours at 37° C., 5% CO2 and then the culture medium is removed. Cells are fixed with 4% formaldehyde in phosphate-buffered saline (PBS) and incubated at RT for 20 min. The plate is then washed three times with PBST (PBS with 0.05% tween-20), followed by the incubation with 100 μL of pre-cooled methanol at −20° C. for 20 min. After incubation, methanol is removed, and the plate is washed once with PBST. Cells are permeabilized with 100 µL/well of 0.1% Triton X-100 in PBS at RT for 20 min and then quenched with quenching buffer (PBST containing 1% H2O2 and 0.1% sodium azide) for 20 min at RT with gentle shaking. After washing once with PBST, blocking buffer (250 ul/well, Pierce™ Protein-Free-PBS Blocking Buffer, Cat #37572) was then added to the cells for 1-h incubation at RT, followed by anti-pERK antibody (cell signaling, 1:1000 dilution in 5% BSA in PBST) incubation overnight at 4° C. and secondary antibody-HRP (Jackson immunoresearch, 1:3000 dilution in 5% BSA in PBST) incubation at RT for 1 h. PBST wash is carried out after each step three times. Before the addition of the substrate (Advansta ELISABright), the plate is washed with PBS twice to remove detergent residues. Cellular pERK level is determined using the microplate reader (Biotek Synergy H1) to detect the chemiluminescence signal. IC50 is determined by fitting a 4-parameter sigmoidal concentration-response model. FGFR wild type cells (H1975, PC-9 and AGS) are used to serve as negative control (FGFR selectivity) with the same assay procedures described above.

[4] = target: T4, FGFR3 (Homo sapiens, UniProt P22607); assay: pERK potency assay (In Cell ELISA), RT112 cells; type: cell-based; settings: RT112 (FGFR3 overexpression/FGFR3-TACC3 fusion) cells, 3 hours
T4 construct: RT112 (FGFR3 overexpression/FGFR3-TACC3 fusion); host or cells: RT112; the other entry of the earlier key: TACC3 (Q9Y6A5, Transforming acidic coiled-coil-containing protein 3)
Source text: as §4

[5] = target: T5, FGFR1 (Homo sapiens, UniProt P11362); assay: pERK potency assay (In Cell ELISA), DMS114 cells; type: cell-based; settings: DMS114 (FGFR1 amplification) cells, 3 hours
T5 construct: DMS114 (FGFR1 amplification); host or cells: DMS114
T5 sequence (P11362 22-822): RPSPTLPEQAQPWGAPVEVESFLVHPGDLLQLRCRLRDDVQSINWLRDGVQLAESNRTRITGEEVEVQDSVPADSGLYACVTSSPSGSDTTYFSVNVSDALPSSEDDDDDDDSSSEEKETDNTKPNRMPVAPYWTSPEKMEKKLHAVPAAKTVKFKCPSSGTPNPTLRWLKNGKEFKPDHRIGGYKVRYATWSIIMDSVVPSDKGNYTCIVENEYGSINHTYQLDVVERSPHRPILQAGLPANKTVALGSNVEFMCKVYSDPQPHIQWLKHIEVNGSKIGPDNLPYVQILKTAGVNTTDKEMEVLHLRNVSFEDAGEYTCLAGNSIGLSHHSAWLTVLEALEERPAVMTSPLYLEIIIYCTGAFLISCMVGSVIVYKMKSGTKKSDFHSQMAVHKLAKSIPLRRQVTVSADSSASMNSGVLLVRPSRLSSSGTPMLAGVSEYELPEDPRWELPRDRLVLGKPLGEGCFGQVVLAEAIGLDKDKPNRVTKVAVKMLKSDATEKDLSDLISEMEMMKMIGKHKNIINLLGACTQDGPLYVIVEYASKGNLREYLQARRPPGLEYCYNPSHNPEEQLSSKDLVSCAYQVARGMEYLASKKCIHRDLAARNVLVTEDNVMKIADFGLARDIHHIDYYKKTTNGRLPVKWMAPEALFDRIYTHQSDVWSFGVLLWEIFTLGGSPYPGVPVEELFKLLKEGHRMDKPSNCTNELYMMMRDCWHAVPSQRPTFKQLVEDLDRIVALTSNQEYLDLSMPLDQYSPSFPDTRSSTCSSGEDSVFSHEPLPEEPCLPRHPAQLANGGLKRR
Source text: as §4

T1 sequence (P21802 whole entry V564F, the tested form may be a part): as the sequence (P21802 whole entry N549K, the tested form may be a part) above, with K549N, V564F counted along it

Row | SMILES | GI50 [1] [nM] | GI50 [2] [nM] | pIC50 [3] | FGFR1 IC50/FGFR2 IC50 [3] | FGFR3 IC50/FGFR2 IC50 [3] | pIC50 [4] | pIC50 [5]
1 | C=CC(=O)N1CCC2(CC=C(c3c(-c4ncc(C5CC5)cn4)c4c(N)ncnc4n3C)CC2)CC1 [Example 45, 1-(9-(4-amino-5-(5-cyclopropylpyrimidin-2-yl)-7-methyl-7H-pyrrolo[2,3-d]pyrimidin-6-yl)-3-azaspiro[5.5]undec-8-en-3-yl)prop-2-en-1-one] | 1 to 10 | 1 to 10 | ≥ 9.00 | G (a selectivity ratio greater than 150 but less than or equal to 500) | H (a selectivity ratio greater than 500 but less than or equal to 1000) | < 7.00 | < 7.00
2 | C=CC(=O)N1CCC2(CC=C(c3c(-c4ncc(C5CCOC5)cn4)c4c(N)ncnc4n3C)CC2)CC1 (centres unmarked) [Example 52, 1-(9-(4-amino-7-methyl-5-(5-(tetrahydrofuran-3-yl)pyrimidin-2-yl)-7H-pyrrolo[2,3-d]pyrimidin-6-yl)-3-azaspiro[5.5]undec-8-en-3-yl)prop-2-en-1-one] | ≤ 1 | 1 to 10 | 8.00 to 9.00 | H (a selectivity ratio greater than 500 but less than or equal to 1000) | I (a selectivity ratio greater than 1000 but less than or equal to 2000) | < 7.00 | < 7.00
3 | C=CC(=O)N1CCC2(CC=C(c3c(-c4ncc(F)cn4)c4c(N)ncnc4n3C)CC2)CC1 [Example 44, 1-(9-(4-amino-5-(5-fluoropyrimidin-2-yl)-7-methyl-7H-pyrrolo[2,3-d]pyrimidin-6-yl)-3-azaspiro[5.5]undec-8-en-3-yl)prop-2-en-1-one] | ≤ 1 | 1 to 10 | 8.00 to 9.00 | H (a selectivity ratio greater than 500 but less than or equal to 1000) | J (a selectivity ratio greater than 2000) | < 7.00 | < 7.00
4 | C=CC(=O)N1CCC2(CC=C(c3c(-c4ncc(OC5CCOC5)cn4)c4c(N)ncnc4n3C)CC2)CC1 (centres unmarked) [Example 47, 1-(9-(4-amino-7-methyl-5-(5-((tetrahydrofuran-3-yl)oxy)pyrimidin-2-yl)-7H-pyrrolo[2,3-d]pyrimidin-6-yl)-3-azaspiro[5.5]undec-8-en-3-yl)prop-2-en-1-one] | > 100 | > 100 | ≥ 9.00 | G (a selectivity ratio greater than 150 but less than or equal to 500) | I (a selectivity ratio greater than 1000 but less than or equal to 2000) | < 7.00 | < 7.00
5 | C=CC(=O)N1CCC2(CC=C(c3c(-c4ncc(OC)cn4)c4c(N)ncnc4n3C)CC2)CC1 [Example 43, 1-(9-(4-amino-5-(5-methoxypyrimidin-2-yl)-7-methyl-7H-pyrrolo[2,3-d]pyrimidin-6-yl)-3-azaspiro[5.5]undec-8-en-3-yl)prop-2-en-1-one] | ≤ 1 | 1 to 10 | ≥ 9.00 | H (a selectivity ratio greater than 500 but less than or equal to 1000) | J (a selectivity ratio greater than 2000) | < 7.00 | < 7.00
6 | C=CC(=O)N1CCC2(CC=C(c3c(-c4ncc(OC5CC5)cn4)c4c(N)ncnc4n3C)CC2)CC1 [Example 50, 1-(9-(4-amino-5-(5-cyclopropoxypyrimidin-2-yl)-7-methyl-7H-pyrrolo[2,3-d]pyrimidin-6-yl)-3-azaspiro[5.5]undec-8-en-3-yl)prop-2-en-1-one] | ≤ 1 | 1 to 10 | ≥ 9.00 | G (a selectivity ratio greater than 150 but less than or equal to 500) | I (a selectivity ratio greater than 1000 but less than or equal to 2000) | < 7.00 | < 7.00
7 | C=CC(=O)N1CCC2(CC=C(c3c(-c4ccc(C#N)nc4)c4c(N)ncnc4n3C(F)F)CC2)CC1 [Example 37, 5-(6-(3-acryloyl-3-azaspiro[5.5]undec-8-en-9-yl)-4-amino-7-(difluoromethyl)-7H-pyrrolo[2,3-d]pyrimidin-5-yl)picolinonitrile] | – | – | 7.52 to 8.00 | G (a selectivity ratio greater than 150 but less than or equal to 500) | G (a selectivity ratio greater than 150 but less than or equal to 500) | < 7.00 | < 7.00

Source: patent US20260152503A1, “SPIROBICYCLIC COMPOUNDS” (ACERAND THERAPEUTICS (HONG KONG) LIMITED, priority 2022, published 2026)
